Experimental data as given in patent US8466113B2, “4-isopropylphenyl glucitol compounds as SGLT1 inhibitors” (Taisho Pharmaceutical Co., Ltd., priority 2009, dated 2013).
pIC50: −log10 of the molar value.

Experiments:
Format in all cases: cell-based
human SGLT1 = target: T1, human SGLT1 (Homo sapiens, UniProt P13866); test: Inhibition test for sodium-dependent sugar uptake in CHO-K1 cells stably expressing human SGLT1; settings: [14C]methyl α-D-glucopyranoside uptake, 37° C., 30 minutes, read-out: IC50 for hSGLT1
T1 construct: expressed in transfected cells; host or cells: CHO-K1
T1 sequence (P13866 1-664): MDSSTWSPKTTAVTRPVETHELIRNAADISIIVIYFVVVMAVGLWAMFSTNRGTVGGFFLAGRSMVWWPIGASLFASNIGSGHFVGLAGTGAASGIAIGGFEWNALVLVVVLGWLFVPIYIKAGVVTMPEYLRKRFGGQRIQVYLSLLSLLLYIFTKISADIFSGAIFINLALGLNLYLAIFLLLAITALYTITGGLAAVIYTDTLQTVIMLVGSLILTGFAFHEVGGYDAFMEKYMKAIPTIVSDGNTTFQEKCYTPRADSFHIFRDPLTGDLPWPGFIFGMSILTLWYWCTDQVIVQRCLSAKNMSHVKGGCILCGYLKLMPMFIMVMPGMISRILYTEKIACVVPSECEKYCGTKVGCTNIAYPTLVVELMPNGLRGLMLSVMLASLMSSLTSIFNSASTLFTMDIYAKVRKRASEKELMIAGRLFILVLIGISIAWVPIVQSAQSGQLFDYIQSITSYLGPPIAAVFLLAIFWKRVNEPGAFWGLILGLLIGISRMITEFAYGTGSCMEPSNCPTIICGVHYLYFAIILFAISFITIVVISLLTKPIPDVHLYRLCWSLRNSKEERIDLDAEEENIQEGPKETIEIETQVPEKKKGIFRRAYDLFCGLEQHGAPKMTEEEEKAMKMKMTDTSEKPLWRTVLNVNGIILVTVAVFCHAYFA
Description: (1) Creation of CHO-K1 Cells Stably Expressing Human SGLT1
(§1) A plasmid vector expressing human SGLT1 protein was transfected into CHO-K1 cells using lipofectamine 2000 (Invitrogen). The cells were cultured in the presence of 500 μg/mL geneticin to select resistant strains, followed by screening in the system shown below using sugar uptake capacity as an indicator to obtain SGLT1-expressing cells.
(§2) (3) Inhibition Test for Sodium-Dependent Sugar Uptake in Stably Expressing Cells
(§3) The stably expressing cells prepared above were used in the following test.
(§4) Pretreatment buffer (140 mM choline chloride, 2 mM KCl, 1 mM CaCl2, 1 mM MgCl2, 10 mM HEPES/5 mM Tris, pH 7.4) was added in a volume of 200 μL to the cells stably expressing SGLT1 or 2 mL for Method A and 200 μL for Method B to the cells stably expressing SGLT2, followed by incubation for 20 minutes. The pretreatment buffer was removed and replaced by uptake buffer containing a test compound (1 mM methyl α-D-glucopyranoside (containing [^14C]methyl α-D-glucopyranoside), 140 mM NaCl, 2 mM KCl, 1 mM CaCl2, 1 mM MgCl2, 10 mM HEPES/5 mM Tris, pH 7.4) in a volume of 75 μL for SGLT1 and SGLT2 in Method B or 200 μL for SGLT2 in Method A. Uptake reaction was performed at 37° C. for 30 minutes (SGLT1) or 60 minutes (SGLT2). After the reaction, the cells were washed twice with washing buffer (10 mM methyl α-D-glucopyranoside, 140 mM choline chloride, 2 mM KCl, 1 mM CaCl2, 1 mM MgCl2, 10 mM HEPES/5 mM Tris, pH 7.4) in a volume of 200 μL for SGLT1 and SGLT2 in Method B or 2 mL for SGLT2 in Method A, and then dissolved in a 0.25 M NaOH solution (75 μL for SGLT1 and SGLT2 in Method B or 400 μL for SGLT2 in Method A). A liquid scintillator (Perkin Elmer) was added and mixed well with each sample, followed by measurement of radioactivity using a β-ray analyzer. For the control group, uptake buffer containing no test compound was prepared. Moreover, another uptake buffer containing choline chloride instead of NaCl was also prepared for basal uptake.
(§5) For determination of IC50 values, test compounds prepared at 6 appropriate concentrations were used and their concentrations required for 50% inhibition of the amount of sugar uptake (IC50 values) were calculated relative to the amount of sugar uptake in the control group (100%).

[1] = target: T2, human SGLT2 protein modified to have LeuGluSerArgGlyProVal added to the carboxy-terminal final residue (Homo sapiens, UniProt P31639); test: Inhibition test for sodium-dependent sugar uptake in CHO-K1 cells stably expressing human SGLT2, Method A; settings: uptake 37° C., 60 minutes, read-out: IC50 for hSGLT2 Method A
T2 construct: expressed in transfected cells; host or cells: CHO-K1
T2 sequence (P31639 with tags, fused parts or gaps): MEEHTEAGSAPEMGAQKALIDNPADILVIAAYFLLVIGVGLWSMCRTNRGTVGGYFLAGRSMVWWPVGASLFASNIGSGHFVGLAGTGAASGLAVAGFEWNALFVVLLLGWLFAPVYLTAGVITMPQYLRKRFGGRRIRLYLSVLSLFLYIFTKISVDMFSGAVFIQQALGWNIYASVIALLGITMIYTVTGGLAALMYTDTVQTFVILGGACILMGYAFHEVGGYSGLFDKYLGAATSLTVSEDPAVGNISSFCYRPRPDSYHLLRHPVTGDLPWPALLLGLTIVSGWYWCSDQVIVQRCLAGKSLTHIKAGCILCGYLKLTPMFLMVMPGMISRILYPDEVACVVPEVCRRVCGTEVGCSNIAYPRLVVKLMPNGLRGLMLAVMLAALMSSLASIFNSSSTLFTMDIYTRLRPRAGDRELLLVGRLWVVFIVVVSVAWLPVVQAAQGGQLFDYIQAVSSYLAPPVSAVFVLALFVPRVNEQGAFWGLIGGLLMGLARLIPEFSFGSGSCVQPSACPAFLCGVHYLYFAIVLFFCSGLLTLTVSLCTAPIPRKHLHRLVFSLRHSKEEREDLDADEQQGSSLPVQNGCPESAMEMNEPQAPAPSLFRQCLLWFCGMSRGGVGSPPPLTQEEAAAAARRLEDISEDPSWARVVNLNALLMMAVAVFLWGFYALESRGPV
Description: (§6) (2) Creation of CHO-K1 Cells Stably Expressing Human SGLT2
as §1, with “Method A (described in WO2007/136116): A” for “A”, “SGLT2” for “SGLT1”, “protein modified to have LeuGluSerArgGlyProVal added to the carboxy-terminal final residue” for “protein”, “hygromycin B” for “geneticin”, “SGLT2-expressing” for “SGLT1-expressing”
as §2, §3, §4, §5

human SGLT2 = target: T3, human SGLT2 (Homo sapiens, UniProt P31639); test: Inhibition test for sodium-dependent sugar uptake in CHO-K1 cells stably expressing human SGLT2, Method B; settings: uptake 37° C., 60 minutes, read-out: IC50 for hSGLT2 Method B
T3 construct: expressed in transfected cells; host or cells: CHO-K1
T3 sequence (P31639 1-672): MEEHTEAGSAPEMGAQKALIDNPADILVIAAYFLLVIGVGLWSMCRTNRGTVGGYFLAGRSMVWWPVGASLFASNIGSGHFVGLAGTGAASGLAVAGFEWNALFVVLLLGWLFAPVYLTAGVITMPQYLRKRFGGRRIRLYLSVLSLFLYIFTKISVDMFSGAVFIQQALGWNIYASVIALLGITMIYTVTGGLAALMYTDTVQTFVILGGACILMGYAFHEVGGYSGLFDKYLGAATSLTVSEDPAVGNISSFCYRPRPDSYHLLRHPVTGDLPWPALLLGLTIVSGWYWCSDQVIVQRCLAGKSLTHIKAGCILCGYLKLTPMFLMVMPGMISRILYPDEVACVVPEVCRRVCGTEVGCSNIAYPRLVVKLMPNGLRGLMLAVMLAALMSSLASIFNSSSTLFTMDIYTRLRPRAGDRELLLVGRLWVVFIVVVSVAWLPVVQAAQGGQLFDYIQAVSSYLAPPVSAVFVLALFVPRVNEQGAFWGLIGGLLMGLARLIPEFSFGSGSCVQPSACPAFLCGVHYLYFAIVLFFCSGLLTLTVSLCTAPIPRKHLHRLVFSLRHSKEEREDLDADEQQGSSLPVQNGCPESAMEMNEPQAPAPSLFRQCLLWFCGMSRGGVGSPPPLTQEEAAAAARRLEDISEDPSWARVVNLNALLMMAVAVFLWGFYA
Description: as §6
as §1, with “Method B: A” for “A”, “SGLT2” for “SGLT1”, “LTX” for “2000”, “1000” for “500”, “SGLT2-expressing” for “SGLT1-expressing”
as §2, §3, §4, §5

Row | SMILES | pIC50 (human SGLT1) | pIC50 [1] | pIC50 (human SGLT2)
1 | Cc1cc(/C=C/C(C)(C)C(=O)NC(C)(C)C(=O)N2CCNCC2)ccc1Cc1cc([C@@H]2O[C@H](CO)[C@@H](O)[C@H](O)[C@H]2O)c(O)cc1C(C)C [Example 2-2] | 7.52 | 6.01 | 7.55
2 | Cc1cc(/C=C/C(C)(C)C(=O)NC(C)(C)C(=O)N2CCN(C)CC2)ccc1Cc1cc([C@@H]2O[C@H](CO)[C@@H](O)[C@H](O)[C@H]2O)c(O)cc1C(C)C [Example 3-2] | 7.46 | 5.76 | 7.09
3 | CCN1CCN(C(=O)C(C)(C)NC(=O)C(C)(C)/C=C/c2ccc(Cc3cc([C@@H]4O[C@H](CO)[C@@H](O)[C@H](O)[C@H]4O)c(O)cc3C(C)C)c(C)c2)CC1 [Example 4-2] | 7.34 | 5.78 | 7.12
4 | COc1cc(C(C)C)c(Cc2ccc(/C=C/C(C)(C)C(=O)NC(C)(C)C(=O)NCCN(C)C)cc2C)cc1[C@@H]1O[C@H](CO)[C@@H](O)[C@H](O)[C@H]1O [Example 7-2] | 7.34 | 4.95 | 
5 | COc1cc(C(C)C)c(Cc2ccc(/C=C/C(C)(C)C(=O)NC(C)(C)C(=O)NCCN)cc2C)cc1[C@@H]1O[C@H](CO)[C@@H](O)[C@H](O)[C@H]1O [Example 8-3] | 7.30 | 4.80 | 6.32
6 | COc1cc(C(C)C)c(Cc2ccc(/C=C/C(C)(C)C(=O)NC(C)(C)C(=O)N3CCNCC3)cc2C)cc1[C@@H]1O[C@H](CO)[C@@H](O)[C@H](O)[C@H]1O [Example 9-2] | 7.47 | 5.14 | 6.70
7 | COc1cc(C(C)C)c(Cc2ccc(/C=C/C(C)(C)C(=O)NC(C)(C)C(=O)N3CCN(C)CC3)cc2C)cc1[C@@H]1O[C@H](CO)[C@@H](O)[C@H](O)[C@H]1O [Example 10-2] | 7.26 | 4.83 | 6.55
8 | CCN1CCN(C(=O)C(C)(C)NC(=O)C(C)(C)/C=C/c2ccc(Cc3cc([C@@H]4O[C@H](CO)[C@@H](O)[C@H](O)[C@H]4O)c(OC)cc3C(C)C)c(C)c2)CC1 [Example 11-2] | 7.23 | 5.01 | 6.26
9 | COc1cc(C(C)C)c(Cc2ccc(/C=C/C(C)(C)C(=O)NC(C)(C)C(=O)N3CCC(N(C)C)CC3)cc2C)cc1[C@@H]1O[C@H](CO)[C@@H](O)[C@H](O)[C@H]1O [Example 12-2] | 7.15 | 5.31 | 6.95
10 | COc1cc(C(C)C)c(Cc2ccc(/C=C/C(C)(C)C(=O)NC(C)(C)C(=O)NC3CCNCC3)cc2C)cc1[C@@H]1O[C@H](CO)[C@@H](O)[C@H](O)[C@H]1O [Example 14-2] | 7.14 | 5.62 | 7.09
11 | COc1cc(C(C)C)c(Cc2ccc(/C=C/C(C)(C)C(=O)NC(C)(C)C(=O)N3CCNCC3)cc2)cc1[C@@H]1O[C@H](CO)[C@@H](O)[C@H](O)[C@H]1O [Example 16-2] | 7.42 | 5.99 | 7.77
12 | COc1cc(C(C)C)c(Cc2ccc(/C=C/C(C)(C)C(=O)NC(C)(C)C(=O)N3CCN(C)CC3)cc2)cc1[C@@H]1O[C@H](CO)[C@@H](O)[C@H](O)[C@H]1O [Example 17-2] | 7.38 | 6.01 | 7.59
